In patent publication US7709466B2, “Pyridazinone derivatives, methods for their production and their use as pharmaceuticals” (Sanofi-Aventis Deutschland GmbH, priority 2004, dated 2010):

Target: GSK-3β (Homo sapiens, UniProt P49841)
Experiment: GSK-3β activity, AlphaScreen technology, determination of IC50-values
Format: biochemical
Conditions: human recombinant enzyme, primed glycogen synthase substrate peptide, 10 μM ATP, 60 min at room temperature, triplicate; read-out: GSK3β (μmol)
Description: Functional Measurements for Determination of IC50-Values
GSK-3βGSK-β activity is measured using human recombinant GSK-β and a primed (pre-phosphorylated) substrate peptide (derived from glycogen synthase and containing the phosphorylation sites 3a, b, and c) on basis of the AlphaScreen technology in 384-well plate format (small volume plate, white, GREINER). In a final volume of 11 μl, 2 μl of compound (1 nM-[…] in kinase buffer, DMSO (dimethylsulfoxide) kept constant at 0.9%), 2 μl of GSK-βsolution (0.18 nM) and 2 μl of biot. phospho-glycogen synthase peptide (34 nM) in kinase buffer (20 mM Hepes, pH 7.4, 10 mM MgCl2, […] (ethylenediaminotetraacetate), 1 mM DTT (dithiotriol), 0.1 mg/ml BSA (bovine serum albumin), 10 μM ATP (adenosinetriphosphate)) are incubated at room temperature for 60 min.

Chain of GSK-3β (P49841 whole entry): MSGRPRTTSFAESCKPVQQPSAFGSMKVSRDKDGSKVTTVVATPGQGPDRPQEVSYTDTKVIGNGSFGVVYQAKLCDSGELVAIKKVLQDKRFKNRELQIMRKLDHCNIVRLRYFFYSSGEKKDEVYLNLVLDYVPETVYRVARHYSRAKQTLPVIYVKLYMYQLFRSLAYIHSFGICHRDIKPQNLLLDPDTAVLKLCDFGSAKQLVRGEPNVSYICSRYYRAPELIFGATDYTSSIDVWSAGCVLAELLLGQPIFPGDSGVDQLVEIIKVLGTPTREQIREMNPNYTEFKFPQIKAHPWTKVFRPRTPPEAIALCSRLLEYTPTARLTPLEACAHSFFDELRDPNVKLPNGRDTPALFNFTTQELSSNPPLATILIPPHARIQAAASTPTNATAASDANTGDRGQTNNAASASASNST

Row | IC50 [nM] | SMILES
1 | 590 | Cc1cc(-c2cc(-c3cc4ccccc4[nH]3)c(=O)[nH]n2)cc(C)c1O [Example 6, 6-(4-Hydroxy-3,5-dimethyl-phenyl)-4-(1H-indol-2-yl)-2H-pyridazin-3-one]
2 | 102 | O=c1[nH]nc(-c2ccncc2)cc1-c1[nH]c2ccccc2c1CN1CCOCC1 [Example 11, 4-(3-Morpholin-4-ylmethyl-1H-indol-2-yl)-6-pyridin-4-yl-2H-pyridazin-3-one]
3 | 25 | O=c1[nH]nc(-c2ccncc2)cc1-c1[nH]c2ccccc2c1Cl [Example 26, 4-(3-Chloro-1H-indol-2-yl)-6-pyridin-4-yl-2H-pyridazin-3-one]
4 | 4 | O=c1[nH]nc(-c2ccncc2)cc1-c1cc2ccc(CN3CCN(C4CC4)CC3)cc2[nH]1 [Example 65, 4-[6-(4-Cyclopropyl-piperazin-1-ylmethyl)-1H-indol-2-yl]-6-pyridin-4-yl-2H-pyridazin-3-one]
5 | 10 | O=C(O)[C@@H]1CCCN1Cc1ccc2cc(-c3cc(-c4ccncc4)n[nH]c3=O)[nH]c2c1 [Example 74, (S)-1-[2-(3-Oxo-6-pyridin-4-yl-2,3-dihydro-pyridazin-4-yl)-1H-indol-6-ylmethyl]-pyrrolidine-2-carboxylic acid]
6 | 14 | O=c1[nH]nc(-c2ccncc2)cc1-c1cc2ccc(CNC3CC3)cc2[nH]1 [Example 87, 4-(6-Cyclopropylaminometh-yl-1H-indol-2-yl)-6-pyridin-4-yl-2H-pyridazin-3-one]
7 | 12 | CN(Cc1ccc2cc(-c3cc(-c4ccncc4)n[nH]c3=O)[nH]c2c1)C1CCN(C2CC2)CC1 [Example 89, 4-(6-{[(1-Cyclopropyl-piperidin-4-yl)-methyl-amino]-methyl}-1H-indol-2-yl)-6-pyridin-4-yl-2H-pyridazin-3-one]
8 | 7 | COc1ccc2[nH]c(-c3cc(-c4ccncc4)n[nH]c3=O)cc2n1 [Example 116, 4-(5-Methoxy-1H-pyrrolo[3,2-b]pyridin-2-yl)-6-pyridin-4-yl-2H-pyridazin-3-one]
9 | 11 | O=c1[nH]nc(-c2ccncc2)cc1-c1[nH]c2ccccc2c1C1CC1 [Example 118, 4-(3-Cyclopropyl-1H-indol-2-yl)-6-pyridin-4-yl-2H-pyridazin-3-one]
10 | 1500 | Cn1cc(-c2cc(-c3cc4ccccc4[nH]3)c(=O)[nH]n2)cn1 [Example 126, 4-(1H-Indol-2-yl)-6-(1-methyl-1H-pyrazol-4-yl)-2H-pyridazin-3-one]
11 | 7 | Cn1cc(-c2c(-c3cc(-c4ccncc4)n[nH]c3=O)[nH]c3ccccc23)cn1 [Example 133, 4-[3-(1-Methyl-1H-pyrazol-4-yl)-1H-indol-2-yl]-6-pyridin-4-yl-2H-pyridazin-3-one]
12 | 2000 | O=c1[nH]nc(-c2ccn[nH]2)cc1-c1cc2ccccc2[nH]1 [Example 147, 4-(1H-Indol-2-yl)-6-(2H-pyrazol-3-yl)-2H-pyridazin-3-one]
13 | 21 | CN1CCN(Cc2ccc3cc(-c4cc(-c5cccc(O)c5)n[nH]c4=O)[nH]c3c2)CC1 [Example 156, 6-(3-Hydroxy-phenyl)-4-[6-(4-methyl-piperazin-1-ylmethyl)-1H-indol-2-yl]-2H-pyridazin-3-one]
14 | 18 | CC(NC1CCN(C2CC2)CC1)c1ccc2cc(-c3cc(-c4ccncc4)n[nH]c3=O)[nH]c2c1 (stereo not shown) [Example 165, 4-{6-[1-(1-Cyclopropyl-piperidin-4-ylamino)-ethyl]-1H-indol-2-yl}-6-pyridin-4-yl-2H-pyridazin-3-one]
15 | 78 | Cc1cc(-c2cc(-c3[nH]c4ccccc4c3-c3c[nH]c(=O)[nH]c3=O)c(=O)[nH]n2)cc(C)c1O [Example 176, 5-{2-[6-(4-Hydroxy-3,5-dimethyl-phenyl)-3-oxo-2,3-dihydro-pyridazin-4-yl]-1H-indol-3-yl}-1H-pyrimidine-2,4-dione]
16 | 18 | Cc1cc(-c2cc(-c3cc4ncccc4[nH]3)c(=O)[nH]n2)cc(C)c1O [Example 180, 6-(4-Hydroxy-3,5-dimethyl-phenyl)-4-(1H-pyrrolo[3,2-b]pyridin-2-yl)-2H-pyridazin-3-one]
